Experimental data published in US11377440B2, “Modulators of stimulator of interferon genes (STING)” (GlaxoSmithKline Intellectual Property Development Limited, priority 2017, dated 2022).

System: T1, STING
T1 construct: endogenous in cells; host or cells: THP-1
Experiment: Functional assay IV (THP-1 antagonist assay), IFNβ secretion after Bacmam virus
Assay type: cell-based, human
Settings: THP-1 cells, Bacmam virus MOI of 40 pfu/cell; upper limit of the assay 9.1

## CCn1nc(C)cc1C(=O)/N=c1\n(C)c2cc(C(N)=O)ccc2n1CCCCCn1/c(=N/C(=O)c2cc(C)nn2CC)n(C)c2cc(C(N)=O)ccc21 [Example 24]
  THP-1 antagonist assay (pIC50): 4.6
